This assay has as its system M. tuberculosis H37Rv growth inhibition with meropenem. The assay can be described thus: M. tuberculosis growth inhibition, H37Rv, set 2, dose response (AID 504703).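 Note: growth ran 7 days at 37 °C then overnight with Alamar Blue before reading.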
Where [1] appears, read: M. tuberculosis H37Rv growth inhibition, measured here: IC50 without meropenem.
[2] abbreviates: M. tuberculosis H37Rv growth inhibition, measured here: IC90 without meropenem.
Where [3] appears, read: measured here: IC90 with meropenem.

Broadly, the IC50 is the midpoint of a concentration-inhibition curve. As usually defined, the IC90 is the concentration needed for an effect of 90%. Higher therefore signals weaker potency.

Active and inactive are the calls of the source. The rule behind the calls is not given here. Bounds are passed on as bounds.

As for `Cc1ccccc1OCC(=O)Nc1ncccn1`, the IC50 under setting [1] is over 25 µM. Further, the 90% effect concentration (IC90) under setting [2] was over 25 µM.

In turn, `Cc1ccc(OCC(=O)Nc2nnn(C)n2)c(C)c1` came in with an IC50 under setting [1] of over 25 µM. Moreover, the IC90 under setting [2] was over 25 µM.

For the compound `Cc1cccc(C)c1OCC(=O)Nc1nc2ccc(Cl)cc2s1`, under setting [1], the IC50 is over 25 µM. Moreover, the IC90 under setting [2] is over 25 µM.

In the case of `COC(=O)c1ccc2nc(NC(=O)COc3ccccc3)sc2c1`, the IC50 under setting [1] is over 25 µM. Moreover, the 90% effect concentration (IC90) under setting [2] was over 25 µM.

Under setting [1], `Cc1c(OCc2ccc(C(=O)O)cc2)ccc2c(-c3ccccc3)cc(=O)oc12` showed an IC50 of over 25 µM. Besides, the concentration for an effect of 90% (IC90) reads like this: under setting [2], over 25 µM; under setting [3], over 25 µM.

As for `O=C(CC12CC3CC(CC(C3)C1)C2)NCc1ccc(F)cc1`, the IC50 under setting [1] is over 25 µM. Under setting [2], this compound gave an IC90 of over 25 µM.

In the case of `N/C(=N\c1nc2ccccc2o1)NC(=O)c1ccccc1F`, the IC50 under setting [1] was over 25 µM. This compound also yielded an IC90 under setting [2] of over 25 µM.

Regarding `COc1ccc2nc(NC(=O)C(C)Oc3ccccc3)sc2c1` (stereo not drawn), the concentration for half-maximal inhibition (IC50) under setting [1] was over 25 µM. In addition, the IC90 under setting [2] is over 25 µM.

As for `O=C(COc1ccc(Cl)cc1)Nc1nc2ccc(F)cc2s1`, the IC50 under setting [1] was over 25 µM. The compound further registered an IC90 under setting [2] of over 25 µM.

`Cc1cccc(C)c1OCC(=O)Nc1nc2ccccc2s1` yielded an IC50 under setting [1] of over 25 µM. The IC90 under setting [2] was over 25 µM.

The compound `Cc1cc2cc(Cl)ccc2[nH]1` registered an IC50 under setting [1] of over 25 µM. This compound also showed an IC90 under setting [2] of over 25 µM.

As to `COc1ccc2c(c1)cc(C)n2-c1ccccc1`, the IC50 under setting [1] was over 25 µM. Moreover, the IC90 is over 25 µM under setting [2] and over 25 µM under setting [3].

Compound `Cc1ccccc1OCC(=O)Nc1ccccc1N1CCCCC1` gave an IC50 under setting [1] of over 25 µM. In addition, the IC90 runs as follows: under setting [2], over 25 µM; under setting [3], over 25 µM.

As to `CCOc1ccc2nc(NC(=O)c3cnccn3)sc2c1`, the IC50 under setting [1] was over 25 µM. This compound showed an IC90 under setting [2] of over 25 µM.

Regarding `CCOc1ccc2c(c1)cc(C)n2-c1ccccc1`, the IC50 is 11.5 µM (inactive). For the same compound, under setting [1], the half-maximal inhibitory concentration (IC50) is over 25 µM. The IC90 under setting [2] was over 25 µM. Besides, under setting [3], the IC90 was over 25 µM.

In turn, `Cc1ccc(OCC(=O)Nc2cccc3ncccc23)c(C)c1` yielded an IC50 under setting [1] of over 25 µM. The same compound showed an IC90 under setting [2] of over 25 µM.

Compound `CCCN1CC(O)=C(c2nc3ccccc3s2)C1=N` came in with a half-maximal inhibitory concentration (IC50) under setting [1] of over 25 µM. The compound further gave an IC90 under setting [2] of over 25 µM.

`CCOc1ccc2c(c1)c(C(C)=O)c(C)n2-c1ccccc1Cl`: the IC50 was 13.6 µM (inactive). Under setting [1], this compound showed an IC50 of over 25 µM. Besides, under setting [2], the 90% effect concentration (IC90) was over 25 µM. The compound also came in with an IC90 under setting [3] of over 25 µM.

Take `COc1cccc(NC(=S)Nc2cc(C)cc(C)n2)c1`: the IC50 was 7.2 µM (inactive). In addition, the IC50 under setting [1] turned out to be 14.4 µM. This compound also had a concentration for an effect of 90% (IC90) under setting [2] of over 25 µM. This compound showed an IC90 under setting [3] of over 25 µM.

Under setting [1], `O=C(Nc1nc2ccccc2[nH]1)c1cc2cc(Br)ccc2o1` returned an IC50 of over 25 µM. The compound further returned an IC90 under setting [2] of over 25 µM.

The compound `CCOc1ccc2[nH]c(C)cc2c1` had an IC50 under setting [1] of over 25 µM. Further, under setting [2], the IC90 is over 25 µM.

Consider `COc1ccc2[nH]c(C)cc2c1`, for which, under setting [1], the IC50 is over 25 µM. The compound further yielded an IC90 under setting [2] of over 25 µM.

Compound `Cc1ccccc1OCC(=O)Nc1nnn(C)n1` came in with an IC50 under setting [1] of over 25 µM. Further, the IC90 under setting [2] was over 25 µM.

Under setting [1], `Cc1cc2cc(Cl)ccc2n1-c1ccccc1` returned an IC50 of over 25 µM. Also, the IC90 under setting [2] was over 25 µM.

With `Cc1cc(C)c(OCC(=O)Nc2nc3ccc(C)cc3s2)c(C)c1`, the IC50 under setting [1] was over 25 µM. Besides, the IC90 under setting [2] is over 25 µM.

`COc1ccc2nc(NC(=O)COc3ccc(Cl)cc3)sc2c1`: the IC50 under setting [1] is over 25 µM. The compound further returned an IC90 under setting [2] of over 25 µM.

`CC(C)(C)c1ccc(OCC(=O)Nc2nc3ccccc3s2)cc1` gave an IC50 under setting [1] of over 25 µM. For the same compound, the IC90 under setting [2] is over 25 µM.

Consider `Cc1ccc(OCC(=O)Nc2cccc3ccccc23)c(C)c1`, for which the IC50 is 20.5 µM (inactive). Besides, the IC50 under setting [1] is over 25 µM. The same compound displayed an IC90 under setting [2] of over 25 µM. The compound further gave an IC90 under setting [3] of over 25 µM.

As for `CC(=O)c1c(C)n(-c2ccccc2C)c2ccc(O)cc12`, the IC50 under setting [1] is over 25 µM. The same compound yielded an IC90 under setting [2] of over 25 µM.

In the case of `CN(NC(=O)c1c(Cl)cccc1Cl)c1cccc(Cl)n1`, the IC50 is 15.5 µM (inactive). This compound came in with an IC50 under setting [1] of over 25 µM. The compound further returned an IC90 under setting [2] of over 25 µM. Under setting [3], this compound had a 90% effect concentration (IC90) of over 25 µM.

`N/C(=N\c1nc2ccccc2o1)NC(=O)c1ccccc1`: under setting [1], the IC50 is over 25 µM. This compound gave an IC90 under setting [2] of over 25 µM.

As to `CC(=O)Nc1ccc2nc(NC(=O)COc3ccccc3)sc2c1`, the half-inhibitory concentration (IC50) under setting [1] is over 25 µM. Also, the IC90 under setting [2] was over 25 µM.

For `Cc1cccnc1NC(=S)NC(=O)c1cncc(Br)c1`, the IC50 is 2.71 µM (inactive). Moreover, the IC50 under setting [1] was 4.21 µM. In addition, the IC90 under setting [2] was over 25 µM. Besides, the concentration for an effect of 90% (IC90) under setting [3] was over 25 µM.

Under setting [1], `Cc1ccc(OCC(=O)Nc2nc3ccc(F)cc3s2)cc1` returned a 50% inhibitory concentration (IC50) of over 25 µM. Besides, under setting [2], the IC90 was over 25 µM.

The record behind these values is PubChem BioAssay AID504703 (Southern Research Specialized Biocontainment Screening …, 2011).
